# Like-named read-outs stand apart in the source and are kept apart here. Ends that are not written are not given here.
# Experiments:
# [1] = test system: Vibrio cholerae O1 El Tor strain C6706; assay type: cell-based; conditions: CM9-Hepes pH 7.4, 5 × 10^5 cfu/mL, 20 h at 37 °C shaking, OD 600 nm, triplicate
# [2] = test system: bacteria; conditions: bacteria and source not stated (discussion)
# [3] = Calcein dye leakage assay on LUVs
# Experimental: Calcein leakage assays were done on large unilamellar vesicles (LUVs) following a procedure previously described. , Briefly, a 3:1 POPC/POPG lipid film (containing 4 μmol total of lipids) was prepared in a round-bottom flask using the lipids dissolved in chloroform. The solvent was removed under N2 gas before drying overnight under vacuum. The next day, the lipid cake was hydrated with 300 μL of 80 mmol/L calcein dye (pH 7.4) to generate a suspension that was subjected to 3 freeze–thaw cycles before extrusion through a 0.1 μm polycarbonate filter placed in a mini extruder (Avanti Polar Lipids). Untrapped calcein was separated from the LUVs by chromatography using a Sephadex G-50 column run with HEPES buffer (50 mmol/L, 100 mmol/L NaCl, 0.3 mmol/L EDTA, pH 7.4). A total phosphorus assay was performed to determine the exact lipid concentration of the LUVs. After diluting the vesicles to a final concentration of ∼35 μmol/L, the LUVs were plated in 180 μL wells and exposed to 20 μL of TP4 solutions serially diluted from stock, as needed to generate peptide-to-lipid ratios (P/L) ranging from P/L = 1:2 and 1:1024. Triplicates of each well were run, and at least three independent assays were performed as well. The 96-well plate was incubated at 20 °C with shaking for 40 min. After equilibration at room temperature, the fluorescence was measured using a BioTek SynergyH1 plate reader (BioTek, Winooski, VT) using excitation and emission wavelengths of 490 and 520 nm, respectively. The fractional leakage produced by TP4 was calculated using the equation: %leakage=Ix−I0%/I100%−I0% where I x is the fluorescence intensity in a peptide-containing well, I 100% is the intensity of the positive control (100% leakage obtained with 20 μL of 1% Triton-X detergent), and I 0% is the intensity of the negative control (0% leakage obtained with 20 μL nanopure water). P1 was run in parallel for comparative purposes. The dose–response curves were fitted in GraphPad Prism using a modified version of the Hill equation to extract the EC50 as the P/L where half of the dye has been released. […]
# [4] = test system: Escherichia coli (E. coli) MG1655; assay type: cell-based
# Experimental: (§1) Minimum inhibitory concentrations were determined by broth microdilution technique. Two bacterial species were used: Gram-positive bacteria Staphylococcus epidermidis (S. epidermidis), derived from ATCC 14990 and Gram-negative bacteria Escherichia coli (E. coli) MG1655, respectively. S. epidermidis was grown in TSB, and E. coli was grown in MHB. Both were stored at 4 °C on their respective growth medium agar plates. Before the assay, bacteria were grown overnight in 5 mL of growth medium at 37 °C. The grown bacteria were further subcultured in 3 mL of growth medium by diluting to 1% until the O.D. reached 0.4–0.6 within 2.5–3 h. After the bacteria reached the mid log phase, further dilution was made to attain an O.D. of 0.001 to get a final of ∼10^5 CFU/mL in each well of a 96-well plate. An Opentron OT_2 robot pipetting system was used to automatically prepare serial dilutions of peptides and add the bacteria to attain a total volume of 100 μL in each well. The wells containing only medium served as a negative blank. The plate was then incubated for 24 h at 37 °C, and the O.D. of the plate was recorded at 600 nm using a BioTek (Agilent, Santa Clara, CA) microplate reader (Figure S1). The lowest concentration at which no bacterial growth was observed was considered the MIC of the peptide.
# [5] = test system: Staphylococcus epidermidis (S. epidermidis), derived from ATCC 14990; assay type: cell-based
# Experimental: as §1
# [6] = broth microdilution, MHB, ~10^5 CFU/mL, 24 h at 37 °C, O.D. 600 nm, lowest concentration with no growth
# [7] = broth microdilution, TSB, ~10^5 CFU/mL, 24 h at 37 °C, O.D. 600 nm, lowest concentration with no growth
Substance,MIC Vibrio cholerae [1],MIC values [2],"MIC E. coli [4, 6]","MIC S. epidermidis [5, 7]",other results
"FFHHIFRGIVHVGKTIHRLVTG-NH2 [P1, reference compound]",16 µmol/L,< 1 µmol/L,–,–,–
"FFHHIFRGIVHVGKTIHRLVTGRRRRR-NH2 [P1-R5, P1 with the R5 motif added at the C-terminal end]",–,–,–,–,"EC50, L/P yielding 50% calcein leakage ([3]; 3:1 POPC/POPG LUVs ~35 μmol/L lipid, HEPES pH 7.4, 40 min at 20 °C, fluorescence 490/520 nm, ± standard error, three assays in triplicate): 97.2 ± 3.4 L/P; calcein leakage ([3]; POPC/POPG liposomes, P/L of 1:10): 100%; factor more active than P1 (EC50 ratio) ([3]; calcein leakage, 3:1 POPC/POPG LUVs): 3.4 fold"
FIHHIIGGLFSAGKAIHRLI-NH2 [TP4-noR5],–,–,16 µmol/L,2 µmol/L,–
FIHHIIGGLFSAGKAIHRLIRRRRR-NH2 [TP4],1 µmol/L,< 1 µmol/L,–,–,"MIC E. coli ([4]; MG1655, 24 h): 4 µmol/L; MIC S. epidermidis ([5]; ATCC 14990, 24 h): 1 µmol/L"
QLAQALAAALAALAQGW-NH2 [NP],–,–,>64 µmol/L,>64 µmol/L,–
QLAQALAAALAALAQGWRRRRR-NH2 [NP-R5],–,–,7.5 µmol/L,2 µmol/L,–
